We go through five compounds from article PMC7076352 (Pharmaceutics, 2020).

The subject of data set [1] is CYP2B6. The experiment in a line: in vitro. The settings on record: microsomes. The method, boiled down:
(§1)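 Probe substrates were pooled in a single microsomal incubation, with each substrate concentration optimized to keep metabolite formation linear. Metabolites were quantified against isotope-labelled internal standards: hydroxybupropion-[D6] (OHBUP-[D6]) and 5 nM 4′-hydroxydiclofenac-[^13C6] (OHDIC-[^13C6]).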

Data set [2] has as its system CYP2B6. The settings on record: positive inhibitor of CYP2B6, literature ref 12,13; read-out: Reported IC50; cited from earlier work.
In data set [3] the test system is CYP2C19. The settings on record: read-out: Reported Km; probe substrate OME, CYP2C19, literature range ref 9; cited from earlier work.
The test system of data set [4] is CYP2C19. The data set can be described thus: In vitro cocktail CYP450 activity assay in rat liver microsomes, CYP2C19 (omeprazole probe). The note with it: rat. The method, boiled down: as §1
Data set [5] relates to CYP2C9. The data set can be described thus: in vitro. The note with it: Sprague-Dawley, rat, microsomes, pH 7.4. The method, boiled down: as §1
Data set [6] deals with CYP2C9. The note with it: read-out: Reported IC50; positive inhibitor of CYP2C9, literature ref 17,18; cited from earlier work.
Data set [7] relates to CYP2D6. The data set can be described thus: in vitro. The settings on record: rat, pH 7.4. In a few lines:
as §1

Data set [8] concerns CYP2D6. The settings on record: read-out: Reported Km; probe substrate DEX, CYP2D6, literature range ref 9; cited from earlier work.
For data set [9], the system named is CYP3A4. The data set can be described thus: in vitro. The note with it: Sprague-Dawley, rat, microsomes, pH 7.4. The method, boiled down: as §1
The target of data set [10] is CYP2E1 (Rattus norvegicus, UniProt P05182). The note with it: IC50 CYP2E1, single components; RLM 0.2 mg/mL, 15 min, triplicate, mean ± SD.
The subject of data set [11] is CYP450s (isozyme not named). The experiment in a line: In vitro cocktail CYP450 activity assay, isozyme not given. The format is in vitro ADME, SD rat. The note with it: Sprague-Dawley, rat, pH 7.4. As to the method: (OHBUP-[D6]) and 5 nM 4′-hydroxydiclofenac-[^13C6] (OHDIC-[^13C6]) as internal standards (ISs).

Like-named read-outs stand apart in the source and are kept apart here.

CYP2E1, sequence (P05182 whole entry): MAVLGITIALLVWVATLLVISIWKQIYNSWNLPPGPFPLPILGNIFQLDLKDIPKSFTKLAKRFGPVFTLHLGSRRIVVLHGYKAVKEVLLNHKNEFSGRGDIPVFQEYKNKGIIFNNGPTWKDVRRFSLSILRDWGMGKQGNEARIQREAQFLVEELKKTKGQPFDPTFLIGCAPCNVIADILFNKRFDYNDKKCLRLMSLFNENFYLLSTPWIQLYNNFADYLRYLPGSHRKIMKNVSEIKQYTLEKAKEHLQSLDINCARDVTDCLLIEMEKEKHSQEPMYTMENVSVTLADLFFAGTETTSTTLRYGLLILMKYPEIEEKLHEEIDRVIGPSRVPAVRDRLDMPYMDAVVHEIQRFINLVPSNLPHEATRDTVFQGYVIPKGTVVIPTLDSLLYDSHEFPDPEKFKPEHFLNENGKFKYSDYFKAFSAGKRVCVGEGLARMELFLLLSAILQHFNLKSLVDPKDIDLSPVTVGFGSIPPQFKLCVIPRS

As for `S=P(N1CC1)(N1CC1)N1CC1` [TRI, triethylenethiophosphoramide, reference compound], the IC50 in data set [1] is 0.75 ± 0.0262 µM; in [2], 1.75 to 26 µM.
As for `COc1ccc2[nH]c([S+]([O-])Cc3ncc(C)c(OC)c3C)nc2c1` (stereo not drawn) [OME, omeprazole, reference compound], the Km in [3] was 17 to 26 µM. Besides, the Km at 15 min in data set [4] (SD, pooled rat liver microsomes, pH 7.4, probe omeprazole) was 7.8 ± 1.65 µM.
Consider `Nc1ccc(S(=O)(=O)Nc2ccnn2-c2ccccc2)cc1` [SUL, sulfaphenazole, reference compound], for which the IC50 in data set [5] is […]; in data set [6], […].
As for `COc1ccc2c(c1)[C@]13CCCC[C@@H]1[C@H](C2)N(C)CC3` [DEX, dextromethorphan, reference compound], the Km in [7] (SD) is 0.62 ± 0.08 µM; in data set [8] it was 0.44 to 8.5 µM.
For `O=c1c(O)c(-c2ccc(O)c(O)c2)oc2cc(O)cc(O)c12` [A16, quercetin], the IC50 in data set [9] was […]; in [5], 13.5 ± 2.41 µM; in data set [7] (Sprague-Dawley, microsomes) it was 31.1 ± 3.91 µM; in data set [1] (Sprague-Dawley, rat, pH 7.4) it was 68.5 ± 9.88 µM; in data set [10] it was 20.3 ± 4.13 µM; in data set [11], ≤ 15 µM. Besides, inhibition in [4] (Sprague-Dawley, microsomes, pH 7.4) was half-maximal at 46.4 ± 7.05 µM (IC50).
